Experiment in all cases: NCI tumour cell line growth inhibition, 48 h
Experiment [1] concerns NCI-H522 lung.
Experiment [2] relates to U251 CNS.
Experiment [3] relates to UO-31 renal.
Experiment [4] has as its system HOP-92 NSCLC.
Experiment [5] relates to SF-539 CNS.
Experiment [6] deals with HL-60(TB) leukemia.
In experiment [7] the test system is NCI-H226 lung.
Experiment [8] deals with OVCAR-5 ovarian.
Experiment [9] concerns MDA-MB-435.
The subject of experiment [10] is PC-3 prostate.
The subject of experiment [11] is LOX IMVI melanoma.
Experiment [12] has as its system MOLT-4 leukemia.
The test system of experiment [13] is SK-MEL-28 melanoma.
The test system of experiment [14] is A498 renal.
Experiment [15] has as its system SNB-19 CNS.
Experiment [16] deals with SNB-75 CNS.
Experiment [17] concerns RXF 393 renal.

Data on 18 compounds can be found in PubChem BioAssay (NCI).

Values joined by “and” are separate entries in the source; they are usually repeats but may differ in a detail not shown here. Equal values may be shown once.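 Step 1: Grow cells in 96-well plates. Step 2: Expose to compound for 48 hours at 5 concentrations. Step 3: Interpolate endpoints linearly; if unreached, use highest concentration. GI50: concentration for 50% inhibition of growth. TGI marks complete inhibition of growth.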 A value given as a limit tells only on which side of the number the result lay.

With `OCC(O)COCn1cc(Cn2ncc3c(SCc4ccccc4)ncnc32)nn1` (centres undefined), the TGI in [1] was 73 µM; in experiment [2] it was greater than 100 µM; in [3], greater than 100 µM; in [4], greater than 100 µM; in [5], greater than 100 µM; in experiment [6] it was greater than 100 µM. Also, the TGI in experiment [7], in experiment [8], in experiment [9], in experiment [10], in experiment [11] and in [12] was greater than 100 µM in each case. The TGI in experiment [13], in experiment [14] and in [15] was greater than 100 µM in each case.

For `Cc1ccc(S(=O)(=O)n2cc(/C=C/C#N)c(-c3cn(S(=O)(=O)c4ccc(C)cc4)cc3-c3cn(S(=O)(=O)c4ccc(C)cc4)cc3/C=C/C#N)c2)cc1`, the TGI in experiment [1], in experiment [3], in experiment [4], in experiment [7], in experiment [8] and in experiment [9] was greater than 100 µM in each case. Further, the TGI in experiment [10], in [11], in [16], in experiment [14] and in [15] was greater than 100 µM throughout.

Take `CCOC(=O)c1nc2ccccc2nc1Oc1cc(OC)cc(OC)c1`: the TGI in [17], in experiment [1], in experiment [2], in experiment [3], in [4] and in experiment [5] was greater than 100 µM each time. The TGI in [7], in experiment [8], in [9], in experiment [10], in experiment [11] and in experiment [12] was greater than 100 µM in each case. In addition, the TGI in experiment [13], in experiment [14] and in experiment [15] was greater than 100 µM throughout.

Turning to `N#CC(C#N)=c1c(=O)c2c3ccccc3cc3cccc1c32`, the TGI in [2], in experiment [4], in experiment [6], in experiment [7], in [8] and in experiment [9] was greater than 100 µM throughout. Moreover, the TGI in [10], in experiment [11], in experiment [12], in experiment [13], in [16] and in experiment [14] was greater than 100 µM in each case. In experiment [15], this compound had a TGI greater than 100 µM.

In the case of `CC(NCc1c(O)ccc2c(-c3ccccc3)cc(=O)oc12)C(=O)O` (centres undefined), the TGI in experiment [17], in experiment [1], in experiment [2], in experiment [3], in experiment [4] and in experiment [5] was greater than 100 µM each time. Also, the TGI in [6], in experiment [7], in experiment [8], in experiment [9], in experiment [10] and in [11] was greater than 100 µM in each case. Moreover, the TGI in experiment [12], in experiment [13], in [16] and in [15] was greater than 100 µM each time.

As to `Cc1ccc(-c2n[nH]c(=O)n2/N=C\c2ccccc2O)cc1`, the TGI in experiment [17], in experiment [1], in [2], in experiment [3], in experiment [4] and in [5] was greater than 100 µM throughout. For the same compound, the TGI in experiment [6], in [7], in [8], in [9], in experiment [10] and in [12] was greater than 100 µM each time. In addition, the TGI in experiment [13], in experiment [16] and in experiment [15] was greater than 100 µM each time.

Turning to `COC(=O)c1cc2ccc(O)c(O)c2cn1`, the TGI in experiment [17] was 32.7 µM; in experiment [1], 37.9 µM; in experiment [2] it was 31.2 µM; in experiment [3], 32.2 µM; in experiment [4], 26.3 µM; in experiment [5], 33.5 µM. Further, the TGI is greater than 100 µM in experiment [6]; 36.8 µM in experiment [7]; 35 µM in experiment [8]; 3.25 µM and 3.21 µM in experiment [9]; 56.4 µM in experiment [10]; 5.43 µM and 3.31 µM in experiment [11]. The results for the TGI in experiment [12], in [13] and in [16] were greater than 100 µM, 35.6 µM and 36.6 µM, respectively. Besides, the GI50 in experiment [2] was 16.9 µM; in [11] it was 1.57 µM; in [12], 4.6 µM.

As to `COc1ccc2c(-c3csc(-c4c[nH]c5ccc(Br)cc45)n3)c[nH]c2c1`, the TGI in experiment [17] was 27.9 µM; in [1], 92.6 µM; in experiment [2], greater than 100 µM; in [3], greater than 100 µM; in [4], greater than 100 µM; in experiment [7] it was greater than 100 µM. The TGI in [8] is greater than 100 µM; in experiment [9], 67.9 µM; in experiment [10] it was 79.3 µM; in experiment [11], greater than 100 µM; in [12], greater than 100 µM; in [13], greater than 100 µM. Besides, the TGI in [14] and in [15] was greater than 100 µM in each case.

On to `COc1cc([C@@H]2c3cc4c(cc3[C@H](OC3OC5COC(c6ccco6)OC5C(O)C3O)C3COC(=O)[C@@H]32)OCO4)cc(OC)c1OC` (some centres undefined), for which the TGI was greater than 100 µM in [17]; greater than 57.3 µM in experiment [1]; greater than 100 µM in experiment [2]; greater than 100 µM in experiment [3]; greater than 100 µM in experiment [4]; greater than 100 µM in experiment [5]. Further, the TGI in [6] was greater than 100 µM; in experiment [7], greater than 100 µM; in experiment [8], greater than 100 µM; in [9], greater than 100 µM; in experiment [10], greater than 35.9 µM; in experiment [11], greater than 100 µM. Besides, the TGI in experiment [16] and in [15] was greater than 100 µM each time.

With `Clc1ccc(OCC2NC3CCC2CC3)cn1` (centres undefined), the TGI in [17] is greater than 100 µM; in experiment [1], 40.1 µM; in experiment [2] it was 30.7 µM; in experiment [3], 6.06 µM; in [4], greater than 100 µM; in experiment [5] it was 38.5 µM. Also, the TGI was 51.9 µM in experiment [6]; greater than 100 µM in experiment [7]; greater than 100 µM in experiment [8]; 43.4 µM in experiment [9]; 78.3 µM in experiment [10]; 33.4 µM in [11]. Further, the TGI was 47.5 µM in experiment [12], greater than 100 µM in experiment [13], greater than 100 µM in experiment [16] and 77.1 µM in experiment [15].

Regarding `Brc1ccc(C2=NCSC(c3ccc(Br)cc3)=N2)cc1`, the TGI was 44.3 µM in experiment [17]; 58.4 µM in [1]; 53.3 µM in [2]; 67.2 µM in experiment [3]; greater than 100 µM in experiment [4]; 99.2 µM in [5]. The TGI was 34.8 µM in experiment [6]; greater than 100 µM in experiment [7]; greater than 100 µM in experiment [8]; greater than 100 µM in experiment [9]; 56.7 µM in experiment [10]; 70.9 µM in [11]. The TGI in [12] is 48.6 µM; in [13] it was greater than 100 µM; in experiment [16], 63.1 µM; in experiment [15] it was greater than 100 µM.

On to `Cc1nnc2n1N=C(c1cc(F)c(Cl)cc1Cl)/C(=C/c1ccc(-c3ccc([N+](=O)[O-])cc3)o1)S2`, for which the TGI in [1], in experiment [2], in experiment [3], in [4], in experiment [6] and in experiment [8] was greater than 100 µM each time. Further, the TGI in experiment [9], in experiment [10], in experiment [11], in experiment [12], in [13] and in [14] was greater than 100 µM throughout. Moreover, in experiment [15], the TGI is greater than 100 µM.

On to `Clc1ccc(Cc2nc3ccccc3o2)cc1`, for which the TGI in experiment [17] was 97.8 µM; in experiment [1] it was greater than 100 µM; in experiment [2] it was greater than 100 µM; in [3], greater than 100 µM; in experiment [4], greater than 100 µM; in experiment [5], greater than 100 µM. In addition, the TGI in [6], in [7], in experiment [8], in experiment [9], in [10] and in experiment [11] was greater than 100 µM in each case. Further, the TGI in [12] is greater than 100 µM; in [13], greater than 100 µM; in experiment [16], 91.2 µM; in experiment [15] it was greater than 100 µM.

For the compound `COc1ccc(N2C(=O)c3cc([N+](=O)[O-])cnc3S2(=O)=O)cc1`, the TGI in experiment [17], in experiment [1], in experiment [2], in experiment [3], in [4] and in experiment [6] was greater than 100 µM in each case. The TGI in experiment [7], in [8], in experiment [9], in experiment [10], in experiment [11] and in experiment [12] was greater than 100 µM throughout. Further, the TGI in experiment [13], in experiment [16] and in experiment [15] was greater than 100 µM each time.

Take `COC(=NC(C)C)NC(C)C`: the TGI in [2], in experiment [3], in experiment [4], in experiment [5], in [6] and in experiment [7] was greater than 100 µM each time. Further, the TGI in experiment [8], in [9], in experiment [10], in [11], in [12] and in experiment [13] was greater than 100 µM throughout. In addition, the TGI in experiment [16], in [14] and in experiment [15] was greater than 100 µM throughout.

For the compound `CCCN(CCC)C(=S)Sc1nc(C)nc(N2CCN(c3nc(C)nc(SC(=S)N(CCC)CCC)c3[N+](=O)[O-])CC2)c1[N+](=O)[O-]`, the TGI in experiment [17] is greater than 29.5 µM; in [1], 3.17 µM; in experiment [2], 16.7 µM; in experiment [3], 37.4 µM; in [4], 22.4 µM; in experiment [5] it was greater than 80.6 µM. The TGI was greater than 38.3 µM in [6]; greater than 62.2 µM in experiment [7]; 45.4 µM in experiment [8]; greater than 65.9 µM in experiment [9]; 53.4 µM in experiment [10]; 2.27 µM in experiment [11]. The TGI in experiment [12] was 28 µM; in [13], 36.9 µM; in experiment [16] it was greater than 100 µM; in experiment [15], greater than 88.3 µM.

`CCNC1=C(NC(=O)c2ccc(F)cc2)C(=O)c2ccccc2C1=O`: the TGI in experiment [17] is 84.4 µM; in experiment [1], greater than 100 µM; in [4], greater than 100 µM; in [5] it was greater than 100 µM; in experiment [6], greater than 100 µM; in experiment [7] it was greater than 100 µM. Moreover, the TGI was greater than 100 µM in [8]; 35.9 µM in [9]; greater than 100 µM in [10]; greater than 100 µM in experiment [12]; greater than 100 µM in experiment [13]; greater than 100 µM in experiment [16]. Further, in experiment [15], the TGI is greater than 100 µM.

Regarding `C/C=C1/CC(C(=O)OC)N(C(=O)OCc2ccccc2)C1=S` (centres undefined), the TGI in experiment [17], in experiment [1], in experiment [2], in [3], in [4] and in experiment [8] was greater than 100 µM in each case. Moreover, the TGI in experiment [9], in experiment [10], in experiment [12], in experiment [13], in experiment [16] and in experiment [14] was greater than 100 µM throughout. For the same compound, the TGI in [15] was greater than 100 µM.
